Laboratory results from the supplement of paper PMC6045584.
± gives the standard deviation of the averaged measurements.

Tests used:
[1] = compound: C[C@H](CN(C)C)Oc1nc(Nc2cc3cccc(Cl)c3cn2)cnc1C#N; assay: surviving fraction relative to DMSO-only wells; higher = less growth inhibition; details: exposure time: 5 days
Procedure, shortened: (§1)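 Log-phase tumour cell lines were seeded at 250–500 cells per well in 384-well plates. After 24 hours they were exposed continuously for five days to inhibitors at 0.5, 1, 5, 10, 50, 100, 500 and 1000 nM. Viability was read by CellTiter-Glo luminescence after 10 minutes at room temperature, and surviving fraction is luminescence normalised to the median of DMSO-only wells. Each line was screened three times and kept only if replicate Pearson r >0.7 and median Z' >0.3.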

CABOZANTINIB = compound: COc1cc2nccc(Oc3ccc(NC(=O)C4(C(=O)Nc5ccc(F)cc5)CC4)cc3)c2cc1OC [CABOZANTINIB]; assay: as above; details: exposure time: 5 days
Procedure, shortened: as §1

| Test System | surviving fraction ([1]; 0.5 nM) | surviving fraction ([1]; 1 nM) | surviving fraction ([1]; 5 nM) | surviving fraction ([1]; 10 nM) | surviving fraction ([1]; 50 nM) | surviving fraction ([1]; 100 nM) | surviving fraction ([1]; 500 nM) | surviving fraction ([1]; 1000 nM) | surviving fraction (CABOZANTINIB; 0.5 nM) | surviving fraction (CABOZANTINIB; 1 nM) | surviving fraction (CABOZANTINIB; 5 nM) | surviving fraction (CABOZANTINIB; 10 nM) | surviving fraction (CABOZANTINIB; 50 nM) | surviving fraction (CABOZANTINIB; 100 nM) | surviving fraction (CABOZANTINIB; 500 nM) | surviving fraction (CABOZANTINIB; 1000 nM) |
| --- | --- | --- | --- | --- | --- | --- | --- | --- | --- | --- | --- | --- | --- | --- | --- | --- |
| MDAMB361 BREAST | 0.818 ± 0.021 | 0.744 ± 0.048 | 0.752 ± 0.058 | 0.775 ± 0.053 | 0.724 ± 0.03 | 0.547 ± 0.056 | 0.481 ± 0.02 | 0.488 ± 0.04 | 0.842 ± 0.099 | 0.796 ± 0.056 | 0.816 ± 0.042 | 0.844 ± 0.06 | 0.93 ± 0.081 | 0.887 ± 0.1 | 0.903 ± 0.054 | 0.89 ± 0.12 |
| ASKA SYNOVIAL | 1.05 ± 0.055 | 1.13 ± 0.083 | 1.11 ± 0.087 | 1.06 ± 0.082 | 0.994 ± 0.061 | 0.852 ± 0.041 | 0.432 ± 0.032 | 0.438 ± 0.0075 | 1.09 ± 0.049 | 1.1 ± 0.062 | 1.13 ± 0.11 | 1.18 ± 0.029 | 1.08 ± 0.04 | 1.2 ± 0.03 | 1.1 ± 0.1 | 1.03 ± 0.029 |
| SG28 HEADNECK | 1.02 ± 0.033 | 1.15 ± 0.033 | 0.996 ± 0.05 | 1.09 ± 0.19 | 1.04 ± 0.069 | 1.22 ± 0.31 | 1.11 ± 0.018 | 0.959 ± 0.18 | 1.07 ± 0.047 | 1.12 ± 0.061 | 0.968 ± 0.099 | 0.959 ± 0.023 | 1 ± 0.06 | 1 ± 0.16 | 1.06 ± 0.058 | 1.19 ± 0.26 |
| SCC003 HEADNECK | 1.04 ± 0.09 | 1.06 ± 0.022 | 1.06 ± 0.055 | 1.05 ± 0.054 | 1.05 ± 0.079 | 1.1 ± 0.018 | 0.848 ± 0.011 | 0.97 ± 0.12 | 0.921 ± 0.063 | 0.878 ± 0.055 | 0.97 ± 0.02 | 0.965 ± 0.047 | 1.08 ± 0.011 | 1.04 ± 0.029 | 0.98 ± 0.03 | 0.936 ± 0.1 |
| SIHA CERVIX | 0.955 ± 0.041 | 0.981 ± 0.033 | 1.06 ± 0.037 | 1.05 ± 0.061 | 1.16 ± 0.014 | 1.11 ± 0.1 | 0.95 ± 0.092 | 1 ± 0.033 | 0.857 ± 0.073 | 0.835 ± 0.051 | 0.979 ± 0.02 | 0.918 ± 0.017 | 0.988 ± 0.024 | 0.929 ± 0.038 | 0.737 ± 0.032 | 0.68 ± 0.033 |
| SYO1 SYNOVIAL | 0.955 ± 0.038 | 0.963 ± 0.015 | 0.969 ± 0.017 | 0.941 ± 0.023 | 0.97 ± 0.026 | 0.835 ± 0.015 | 0.34 ± 0.0094 | 0.197 ± 0.014 | 0.92 ± 0.027 | 0.938 ± 0.042 | 0.929 ± 0.037 | 0.859 ± 0.02 | 0.807 ± 0.022 | 0.818 ± 0.044 | 0.721 ± 0.041 | 0.694 ± 0.031 |
| HT1080 SOFT TISSUE | 1.04 ± 0.044 | 1.03 ± 0.011 | 1.04 ± 0.017 | 1.04 ± 0.023 | 1 ± 0.028 | 0.972 ± 0.041 | 0.707 ± 0.018 | 0.398 ± 0.012 | 1.05 ± 0.025 | 0.999 ± 0.021 | 1.01 ± 0.021 | 1.03 ± 0.013 | 1.01 ± 0.022 | 1.01 ± 0.014 | 0.973 ± 0.0017 | 0.965 ± 0.033 |
| SG43 HEADNECK | 0.863 ± 0.068 | 0.929 ± 0.058 | 0.961 ± 0.13 | 0.933 ± 0.091 | 0.729 ± 0.078 | 0.585 ± 0.08 | 0.692 ± 0.082 | 0.91 ± 0.18 | 0.887 ± 0.051 | 0.863 ± 0.15 | 0.883 ± 0.019 | 0.788 ± 0.11 | 0.759 ± 0.18 | 0.737 ± 0.2 | 0.757 ± 0.056 | 0.708 ± 0.072 |
| MCF7 BREAST | 0.896 ± 0.012 | 0.87 ± 0.042 | 0.873 ± 0.069 | 0.881 ± 0.063 | 0.904 ± 0.026 | 0.813 ± 0.046 | 0.751 ± 0.016 | 0.697 ± 0.023 | 0.907 ± 0.019 | 0.836 ± 0.012 | 0.852 ± 0.029 | 0.863 ± 0.033 | 0.889 ± 0.015 | 0.933 ± 0.032 | 0.88 ± 0.066 | 0.91 ± 0.075 |
| HELA CERVIX | 1.01 ± 0.019 | 1.03 ± 0.043 | 0.999 ± 0.058 | 0.988 ± 0.079 | 1.11 ± 0.037 | 1.07 ± 0.048 | 1.09 ± 0.085 | 0.831 ± 0.029 | 1.01 ± 0.028 | 0.98 ± 0.021 | 0.999 ± 0.033 | 0.955 ± 0.042 | 1.08 ± 0.036 | 1.06 ± 0.05 | 1.11 ± 0.088 | 1.1 ± 0.028 |
| VP229 BREAST | 0.984 ± 0.1 | 1.02 ± 0.056 | 1.1 ± 0.12 | 1.04 ± 0.14 | 1.05 ± 0.096 | 1.09 ± 0.042 | 1.04 ± 0.086 | 0.86 ± 0.028 | 1.08 ± 0.1 | 1.04 ± 0.14 | 1.04 ± 0.15 | 0.952 ± 0.18 | 1.15 ± 0.2 | 0.998 ± 0.12 | 1.09 ± 0.088 | 0.966 ± 0.061 |
| NY BONE | 0.9707 ± 0.0081 | 0.948 ± 0.042 | 1.01 ± 0.026 | 1.01 ± 0.015 | 1 ± 0.029 | 0.854 ± 0.06 | 0.119 ± 0.0045 | 0.0907 ± 0.0051 | 0.9253 ± 0.009 | 0.98 ± 0.036 | 1.02 ± 0.016 | 0.989 ± 0.024 | 0.9377 ± 0.0067 | 0.887 ± 0.011 | 0.784 ± 0.022 | 0.768 ± 0.026 |
| RDES SOFT TISSUE | 1.28 ± 0.031 | 1.37 ± 0.031 | 1.3 ± 0.14 | 1.2 ± 0.12 | 1.17 ± 0.086 | 1.32 ± 0.041 | 1.33 ± 0.1 | 1.38 ± 0.13 | 1.2 ± 0.077 | 1.09 ± 0.1 | 1.21 ± 0.064 | 1.13 ± 0.083 | 1.23 ± 0.12 | 1.09 ± 0.076 | 1.1 ± 0.03 | 1.22 ± 0.22 |
| OSHN BONE | 1.06 ± 0.015 | 1.08 ± 0.025 | 1.07 ± 0.015 | 1.068 ± 0.0038 | 1.13 ± 0.029 | 1.1 ± 0.019 | 0.709 ± 0.1 | 0.11 ± 0.019 | 1.033 ± 0.005 | 1.024 ± 0.0035 | 1.03 ± 0.011 | 1.02 ± 0.0032 | 1.006 ± 0.0085 | 0.958 ± 0.02 | 0.928 ± 0.015 | 0.908 ± 0.027 |
| CAL120 BREAST | 0.928 ± 0.063 | 0.922 ± 0.076 | 0.965 ± 0.057 | 0.934 ± 0.047 | 0.957 ± 0.069 | 0.917 ± 0.03 | 0.9 ± 0.07 | 0.745 ± 0.027 | 0.918 ± 0.082 | 0.924 ± 0.054 | 0.941 ± 0.056 | 0.921 ± 0.051 | 0.968 ± 0.052 | 0.923 ± 0.019 | 0.893 ± 0.045 | 0.886 ± 0.026 |
| C33A CERVIX | 0.856 ± 0.057 | 0.979 ± 0.11 | 0.903 ± 0.041 | 0.994 ± 0.094 | 0.97 ± 0.074 | 0.937 ± 0.14 | 0.524 ± 0.04 | 0.814 ± 0.054 | 0.753 ± 0.12 | 0.696 ± 0.036 | 0.941 ± 0.021 | 0.885 ± 0.076 | 0.862 ± 0.071 | 0.919 ± 0.019 | 0.702 ± 0.0072 | 0.676 ± 0.068 |
| HSSYII SYNOVIAL | 0.9423 ± 0.0023 | 0.918 ± 0.0061 | 0.956 ± 0.042 | 0.94 ± 0.066 | 0.884 ± 0.039 | 0.74 ± 0.015 | 0.139 ± 0.0076 | 0.077 ± 0.0027 | 0.909 ± 0.022 | 0.927 ± 0.067 | 0.935 ± 0.048 | 0.923 ± 0.025 | 0.963 ± 0.071 | 0.888 ± 0.014 | 0.787 ± 0.0083 | 0.671 ± 0.043 |
| HUO3N1 BONE | 1.11 ± 0.059 | 1.05 ± 0.032 | 1.07 ± 0.023 | 1.07 ± 0.072 | 1.13 ± 0.071 | 0.982 ± 0.031 | 0.7257 ± 0.0065 | 0.486 ± 0.025 | 1.05 ± 0.034 | 1.05 ± 0.066 | 1.02 ± 0.025 | 0.953 ± 0.0036 | 0.916 ± 0.014 | 0.861 ± 0.021 | 0.742 ± 0.07 | 0.666 ± 0.008 |
| ZR751 BREAST | 1.07 ± 0.13 | 1.07 ± 0.085 | 1.08 ± 0.17 | 0.991 ± 0.078 | 0.867 ± 0.13 | 0.909 ± 0.15 | 0.543 ± 0.082 | 0.587 ± 0.042 | 0.87 ± 0.067 | 1.02 ± 0.013 | 1.05 ± 0.083 | 0.995 ± 0.032 | 1.04 ± 0.12 | 1.03 ± 0.086 | 1.07 ± 0.081 | 1.03 ± 0.087 |
| BT20 BREAST | 1.14 ± 0.095 | 1.15 ± 0.081 | 1.22 ± 0.083 | 1.14 ± 0.072 | 1.19 ± 0.093 | 1.31 ± 0.072 | 1.35 ± 0.079 | 1.21 ± 0.093 | 1.02 ± 0.047 | 1.09 ± 0.097 | 1.05 ± 0.069 | 1.2 ± 0.08 | 1.11 ± 0.012 | 1.19 ± 0.11 | 1.19 ± 0.1 | 1.17 ± 0.18 |
| JIMT1 BREAST | 0.979 ± 0.019 | 0.966 ± 0.042 | 1.03 ± 0.01 | 0.988 ± 0.043 | 0.916 ± 0.053 | 0.467 ± 0.025 | 0.0688 ± 0.0064 | 0.0615 ± 0.0039 | 1.03 ± 0.049 | 1.04 ± 0.025 | 1.07 ± 0.029 | 1.04 ± 0.049 | 1.13 ± 0.048 | 1.1 ± 0.033 | 1.04 ± 0.043 | 1 ± 0.039 |
